Assay type in all cases: biochemical
The target of test [1] is recombinant purified human JAK1 (Homo sapiens (Human), UniProt P23458). The test can be described thus: in vitro JAK kinase assay on ADP Glo platform, JAK1. Particulars: 50 μM ATP, 1 hr at room temperature. On the procedure: (§1) NCEs were screened using in vitro JAK (1, 2 and 3) kinase assay on ADP Glo platform (Promega). Fixed amount of recombinant purified human JAK (25 ng of JAK1 and 10 ng of JAK2 and JAK3 per reaction, from Life Technologies Ltd) were incubated with increasing concentration of NCEs in 1× kinase reaction buffer (40 mM Tris-Cl, pH7.5, 20 mM MgCl2, 0.1 mg/ml BSA and 50 μM DTT). Enzymatic reaction was initiated by adding a substrate cocktail containing 50 μM of ATP (final concentration) and 5 μg for JAK1 and 2.5 μg for JAK2 and JAK3 of polyGln4Tyr1 (Signal Chem) in total 25 μl of reaction in 96 well plate. The reaction was incubated at room temperature for 1 hr.
(§2) After 1 hr of incubation equal volume (25 μl per reaction) of ADP Glo was added and incubated at room temperature for 40 min.
(§3) This was followed by addition of kinase detection reagent (50 μl per reaction) and incubation at room temperature for 30 min. Finally, plate was read for luminescence at an integration time of 500 millisecond per well.
(§4) Data were plotted taking Enzyme with no inhibitor set as the 100% kinase activity. IC50 values were calculated using Graph Pad Prism software.
Background: ADP-Glo turns the ADP formed in a reaction into a luminescent signal.

Test [2] addresses recombinant purified human JAK2 (Homo sapiens (Human), UniProt O60674). In words: in vitro JAK kinase assay on ADP Glo platform, JAK2. The following applies: 50 μM ATP, 1 hr at room temperature; read-out: JAK-2 IC50. The protocol:
as §1, §2, §3, §4

Test [3] concerns the target recombinant purified human JAK3 (Homo sapiens (Human), UniProt P52333). In words: in vitro JAK kinase assay on ADP Glo platform, JAK3. The following applies: 50 μM ATP, 1 hr at room temperature; read-out: JAK-3 IC50. The protocol: as §1, §2, §3, §4

Molecules are shown by their SMILES.

Chain of recombinant purified human JAK1 (P23458 whole entry): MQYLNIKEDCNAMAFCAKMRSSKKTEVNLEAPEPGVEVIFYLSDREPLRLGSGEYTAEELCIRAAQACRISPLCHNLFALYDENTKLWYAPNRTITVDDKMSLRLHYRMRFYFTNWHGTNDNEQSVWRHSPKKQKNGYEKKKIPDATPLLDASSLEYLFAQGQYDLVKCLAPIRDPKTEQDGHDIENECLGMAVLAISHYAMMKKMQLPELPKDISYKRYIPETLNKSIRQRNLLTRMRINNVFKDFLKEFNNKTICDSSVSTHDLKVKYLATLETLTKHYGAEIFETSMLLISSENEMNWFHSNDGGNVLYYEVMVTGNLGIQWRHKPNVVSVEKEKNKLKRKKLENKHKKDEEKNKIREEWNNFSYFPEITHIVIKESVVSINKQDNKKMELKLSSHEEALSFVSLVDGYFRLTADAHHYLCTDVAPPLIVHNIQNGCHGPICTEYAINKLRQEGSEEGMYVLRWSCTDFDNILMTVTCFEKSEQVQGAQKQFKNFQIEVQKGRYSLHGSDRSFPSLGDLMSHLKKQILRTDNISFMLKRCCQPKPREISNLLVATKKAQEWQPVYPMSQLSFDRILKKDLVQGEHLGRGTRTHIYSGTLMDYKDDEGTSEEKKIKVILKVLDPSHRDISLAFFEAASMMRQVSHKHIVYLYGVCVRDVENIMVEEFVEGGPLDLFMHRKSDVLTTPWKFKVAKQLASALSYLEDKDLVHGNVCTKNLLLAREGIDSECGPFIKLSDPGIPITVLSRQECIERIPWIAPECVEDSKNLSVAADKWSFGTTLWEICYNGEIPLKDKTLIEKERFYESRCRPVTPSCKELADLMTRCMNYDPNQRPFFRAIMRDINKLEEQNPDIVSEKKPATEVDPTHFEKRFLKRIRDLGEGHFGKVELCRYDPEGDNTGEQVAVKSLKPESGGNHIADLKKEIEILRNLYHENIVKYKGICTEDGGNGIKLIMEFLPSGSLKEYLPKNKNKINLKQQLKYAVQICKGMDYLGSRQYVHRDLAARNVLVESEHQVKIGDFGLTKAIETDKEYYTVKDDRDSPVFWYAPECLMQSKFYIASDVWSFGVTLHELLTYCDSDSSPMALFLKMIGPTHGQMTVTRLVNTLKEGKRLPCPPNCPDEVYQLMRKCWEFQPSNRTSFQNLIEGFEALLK
Chain of recombinant purified human JAK3 (P52333 whole entry): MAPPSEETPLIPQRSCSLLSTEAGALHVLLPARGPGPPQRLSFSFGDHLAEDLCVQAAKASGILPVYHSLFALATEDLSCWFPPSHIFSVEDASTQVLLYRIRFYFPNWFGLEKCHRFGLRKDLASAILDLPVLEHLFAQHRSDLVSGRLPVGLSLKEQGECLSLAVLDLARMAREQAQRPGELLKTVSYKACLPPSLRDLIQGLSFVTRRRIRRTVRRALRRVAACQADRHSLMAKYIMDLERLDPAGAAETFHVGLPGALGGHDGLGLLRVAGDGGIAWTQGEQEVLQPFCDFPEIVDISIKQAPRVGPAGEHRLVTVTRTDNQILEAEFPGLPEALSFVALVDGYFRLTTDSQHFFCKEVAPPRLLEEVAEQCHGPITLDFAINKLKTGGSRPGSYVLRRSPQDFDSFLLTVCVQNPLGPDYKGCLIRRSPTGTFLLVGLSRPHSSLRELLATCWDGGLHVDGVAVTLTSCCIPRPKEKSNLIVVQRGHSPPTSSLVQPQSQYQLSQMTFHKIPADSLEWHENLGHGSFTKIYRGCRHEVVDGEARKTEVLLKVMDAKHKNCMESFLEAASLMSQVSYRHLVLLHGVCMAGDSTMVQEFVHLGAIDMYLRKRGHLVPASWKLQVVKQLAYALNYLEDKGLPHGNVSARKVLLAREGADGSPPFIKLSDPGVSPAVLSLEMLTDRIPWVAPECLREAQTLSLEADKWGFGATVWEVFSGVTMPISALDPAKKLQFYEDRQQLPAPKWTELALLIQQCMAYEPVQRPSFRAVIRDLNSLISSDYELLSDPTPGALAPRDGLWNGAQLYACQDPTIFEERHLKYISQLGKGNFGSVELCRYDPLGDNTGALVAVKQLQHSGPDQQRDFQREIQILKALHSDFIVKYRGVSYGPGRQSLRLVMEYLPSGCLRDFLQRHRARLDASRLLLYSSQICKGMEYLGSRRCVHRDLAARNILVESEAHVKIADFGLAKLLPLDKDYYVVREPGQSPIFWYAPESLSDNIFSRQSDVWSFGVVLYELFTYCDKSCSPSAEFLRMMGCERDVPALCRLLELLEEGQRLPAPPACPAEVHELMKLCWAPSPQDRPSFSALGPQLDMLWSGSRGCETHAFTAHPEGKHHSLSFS
Chain of recombinant purified human JAK2 (O60674 whole entry): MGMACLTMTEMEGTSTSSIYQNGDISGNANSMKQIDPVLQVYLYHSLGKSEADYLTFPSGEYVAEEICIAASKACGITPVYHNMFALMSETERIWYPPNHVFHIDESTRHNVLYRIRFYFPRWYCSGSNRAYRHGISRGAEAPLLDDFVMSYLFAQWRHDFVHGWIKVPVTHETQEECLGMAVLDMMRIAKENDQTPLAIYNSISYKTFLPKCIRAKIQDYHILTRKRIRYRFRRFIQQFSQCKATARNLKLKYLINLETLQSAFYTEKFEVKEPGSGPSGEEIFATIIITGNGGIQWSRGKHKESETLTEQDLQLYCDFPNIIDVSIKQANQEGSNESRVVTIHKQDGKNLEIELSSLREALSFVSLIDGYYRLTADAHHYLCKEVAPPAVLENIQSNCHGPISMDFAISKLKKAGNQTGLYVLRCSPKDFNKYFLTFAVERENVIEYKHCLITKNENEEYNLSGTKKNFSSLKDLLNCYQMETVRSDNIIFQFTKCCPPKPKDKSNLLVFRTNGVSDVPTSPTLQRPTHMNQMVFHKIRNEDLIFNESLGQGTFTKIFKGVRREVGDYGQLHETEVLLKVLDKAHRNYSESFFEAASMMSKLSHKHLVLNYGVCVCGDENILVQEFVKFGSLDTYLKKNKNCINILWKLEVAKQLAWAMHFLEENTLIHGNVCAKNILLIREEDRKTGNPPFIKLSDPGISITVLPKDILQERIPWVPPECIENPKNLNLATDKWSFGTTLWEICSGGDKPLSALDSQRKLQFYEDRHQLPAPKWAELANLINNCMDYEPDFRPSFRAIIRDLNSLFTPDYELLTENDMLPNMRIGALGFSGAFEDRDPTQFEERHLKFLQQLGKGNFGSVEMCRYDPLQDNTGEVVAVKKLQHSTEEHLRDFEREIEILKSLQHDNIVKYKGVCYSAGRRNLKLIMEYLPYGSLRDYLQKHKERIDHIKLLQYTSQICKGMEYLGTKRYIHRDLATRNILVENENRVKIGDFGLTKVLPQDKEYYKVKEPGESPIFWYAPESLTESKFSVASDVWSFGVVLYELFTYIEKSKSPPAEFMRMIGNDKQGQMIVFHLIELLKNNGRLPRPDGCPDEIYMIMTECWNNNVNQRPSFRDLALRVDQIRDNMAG

On to `COc1nnc(C2CCN(c3ccc(Nc4nccc(-c5ccc(C(=O)NCC#N)cc5)n4)cc3)CC2)o1` [Example 31, N-(cyanomethyl)-4-(2-((4-(4-(5-methoxy-1,3,4-oxadiazol-2-yl)piperidin-1-yl)phenyl)amino)pyrimidin-4-yl)benzamide], for which the IC50 in test [1] was determined as 20 nM; in test [2] it was 17 nM; in test [3], 74 nM.

Take `N#CCNC(=O)c1ccc(-c2ccnc(Nc3ccc(N4CCC(N5CC6OCCOC6C5)CC4)cc3)n2)cc1` (stereo not drawn) [Example 27, N-(cyanomethyl)-4-(2-((4-(4-(tetrahydro-2H-[1,4]dioxino[2,3-c]pyrrol-6(3H)-yl)piperidin-1-yl)phenyl)amino)pyrimidin-4-yl)benzamide]: the IC50 was 10 nM in test [1], 5 nM in test [2] and 49 nM in test [3].

For the compound `N#CCNC(=O)c1ccc(-c2ccnc(Nc3ccc(N4CCN(C5CCOCC5)CC4)cc3)n2)cc1` [Example 15, N-(cyanomethyl)-4-(2-((4-(4-(tetrahydro-2H-pyran-4-yl)piperazin-1-yl)phenyl)amino)pyrimidin-4-yl)benzamide], the values for the IC50 in test [1], in test [2] and in test [3] were 16 nM, 11 nM and 88 nM, respectively.

Take `N#CCNC(=O)c1ccc(-c2ccnc(Nc3ccc(N4CCC(c5nnco5)CC4)cc3)n2)cc1` [Example 19, 4-(2-((4-(4-(1,3,4-oxadiazol-2-yl)piperidin-1-yl)phenyl)amino)pyrimidin-4-yl)-N-(cyanomethyl)benzamide]: the IC50 worked out at 10 nM in test [1], 7 nM in test [2] and 40 nM in test [3].

As to `Cc1nnc(C2CCN(c3ccc(Nc4ncc(C)c(-c5ccc(C(=O)NCC#N)cc5)n4)cc3)CC2)o1` [Example 43, N-(cyanomethyl)-4-(5-methyl-2-((4-(4-(5-methyl-1,3,4-oxadiazol-2-yl)piperidin-1-yl)phenyl)amino)pyrimidin-4-yl)benzamide], the IC50 turned out to be 1.2 nM in test [1], 2.6 nM in test [2] and 52.3 nM in test [3].

In the case of `N#CCNC(=O)c1ccc(-c2ccnc(Nc3ccc(N4CCC(N5CCCC5)C4)cc3)n2)cc1` (stereo not drawn) [Example 6, 4-(2-((4-([1,3′-Bipyrrolidin]-1′-yl)phenyl)amino)pyrimidin-4-yl)-N-(cyanomethyl)benzamide], the IC50 in test [1] worked out at 16 nM; in test [2], 19 nM; in test [3] it was 155 nM.

In the case of `N#CCNC(=O)c1ccc(-c2ccnc(Nc3ccc(N4CCN(C5=NCCN5)CC4)cc3)n2)cc1` [Example 33, N-(cyanomethyl)-4-(2-((4-(4-(4,5-dihydro-1H-imidazol-2-yl)piperazin-1-yl)phenyl)amino)pyrimidin-4-yl)benzamide], the values for the IC50 in test [1], in test [2] and in test [3] were 20 nM, 11 nM and 54 nM, respectively.

With `Cc1cnc(Nc2ccc(N3CCC(N4CCCC4=O)CC3)cc2)nc1-c1ccc(C(=O)NCC#N)cc1` [Example 41, N-(cyanomethyl)-4-(5-methyl-2-((4-(4-(2-oxopyrrolidin-1-yl)piperidin-1-yl)phenyl)amino)pyrimidin-4-yl)benzamide], the values for the IC50 in test [1], in test [2] and in test [3] were 0.6 nM, 2.5 nM and 10.7 nM, respectively.

Take `N#CCNC(=O)c1ccc(-c2ccnc(Nc3ccc(N4CCC(N5CC6OCCOC6C5)C4)cc3)n2)cc1` (stereo not drawn) [Example 35, N-(cyanomethyl)-4-(2-((4-(3-(tetrahydro-2H-[1,4]dioxino[2,3-c]pyrrol-6(3H)-yl)pyrrolidin-1-yl)phenyl)amino)pyrimidin-4-yl)benzamide]: the IC50 was 15 nM in test [1], 21 nM in test [2] and 138 nM in test [3].

Consider `Cc1cnc(Nc2ccc(N3CCC(N4CCC5(CCCO5)CC4)CC3)cc2)nc1-c1ccc(C(=O)NCC#N)cc1` [Example 42, 4-(2-((4-(4-(1-oxa-8-azaspiro[4.5]decan-8-yl)piperidin-1-yl)phenyl)amino)-5-methylpyrimidin-4-yl)-N-(cyanomethyl)benzamide], for which the IC50 in test [1] stood at 2.5 nM; in test [2], 4.3 nM; in test [3], 59 nM.

Turning to `Cc1nnc(N2CCN(c3ccc(Nc4nccc(-c5ccc(C(=O)NCC#N)cc5)n4)cc3)CC2)o1` [Example 36, N-(cyanomethyl)-4-(2-((4-(4-(5-methyl-1,3,4-oxadiazol-2-yl)piperazin-1-yl)phenyl)amino)pyrimidin-4-yl)benzamide], the IC50 in test [1] turned out to be 9.2 nM; in test [3] it was 46.9 nM.

As for `N#CCNC(=O)c1ccc(-c2ccnc(Nc3ccc(N4CCC(N5CCOC5=O)CC4)cc3)n2)cc1` [Example 12, N-(cyanomethyl)-4-(2-((4-(4-(2-oxooxazolidin-3-yl)piperidin-1-yl)phenyl)amino)pyrimidin-4-yl)benzamide], the values for the 50% inhibitory concentration (IC50) in test [1] and in test [3] were 25 nM and 78 nM, respectively.

On to `N#CCNC(=O)c1ccc(-c2ccnc(Nc3ccc(N4CCC(N5CCCS5(=O)=O)CC4)cc3)n2)cc1` [Example 2, N-(cyanomethyl)-4-(2-((4-(4-(1,1-dioxidoisothiazolidin-2-yl)piperidin-1-yl)phenyl)amino)pyrimidin-4-yl)benzamide], for which the IC50 was 5.1 nM in test [1], 4 nM in test [2] and 51 nM in test [3].

With `N#CCNC(=O)c1ccc(-c2ccnc(Nc3ccc(N4CCC(N5CCNC5=O)CC4)cc3)n2)cc1` [Example 18, N-(cyanomethyl)-4-(2-((4-(4-(2-oxoimidazolidin-1-yl)piperidin-1-yl)phenyl)amino)pyrimidin-4-yl)benzamide], the IC50 in test [1] was determined as 9 nM; in test [2], 11 nM; in test [3] it was 50 nM.

Consider `N#CCNC(=O)c1ccc(-c2ccnc(Nc3ccc(N4CCC(N5CCC6(CCC(=O)O6)CC5)CC4)cc3)n2)cc1` [Example 28, N-(cyanomethyl)-4-(2-((4-(4-(2-oxo-1-oxa-8-azaspiro[4.5]decan-8-yl)piperidin-1-yl)phenyl)amino)pyrimidin-4-yl)benzamide], for which the IC50 in test [1] is 11 nM; in test [2] it was 6 nM; in test [3] it was 55 nM.

For the compound `Cc1cnc(Nc2ccc(N3CCC(N4CCOCC4)CC3)cc2)nc1-c1ccc(C(=O)NCC#N)cc1` [Example 40, N-(cyanomethyl)-4-(5-methyl-2-((4-(4-morpholinopiperidin-1-yl)phenyl)amino)pyrimidin-4-yl)benzamide], the concentration for half-maximal inhibition (IC50) amounted to 1.3 nM in test [1], 2.8 nM in test [2] and 32 nM in test [3].

Turning to `N#CCNC(=O)c1ccc(-c2ccnc(Nc3ccc(N4CCN(C5CCS(=O)(=O)C5)CC4)cc3)n2)cc1` (stereo not drawn) [Example 9, N-(cyanomethyl)-4-(2-((4-(4-(1,1-dioxidotetrahydrothiophen-3-yl)piperazin-1-yl)phenyl)amino)pyrimidin-4-yl)benzamide], the IC50 stood at 14 nM in test [1], 8 nM in test [2] and 40 nM in test [3].

`CC(=O)N1C2CC1CN(C1CCN(c3ccc(Nc4nccc(-c5ccc(C(=O)NCC#N)cc5)n4)cc3)CC1)C2` [Example 39, 4-(2-((4-(4-(6-acetyl-3,6-diazabicyclo[3.1.1]heptan-3-yl)piperidin-1-yl)phenyl)amino)pyrimidin-4-yl)-N-(cyanomethyl)benzamide]: the 50% inhibitory concentration (IC50) in test [1] worked out at 8.8 nM; in test [3] it was 50.7 nM.

Usually IC50 stands for the concentration at which inhibition is half-maximal.

Values taken from US9556148B2, “N-cyanomethylamides as inhibitors of janus kinase” (CADILA HEALTHCARE LIMITED, priority 2013, dated 2017).
